Assay results taken from ChEMBL document CHEMBL2021790, “Pyridone methylsulfone hydroxamate LpxC inhibitors for the treatment of serious gram-negative infections” (J Med Chem, 2012).
Converted amounts (≈) assume the structure as drawn.

Assays:
Klebsiella pneumoniae = assay: microbe, parasite or virus in culture
Description: Antimicrobial activity against Klebsiella pneumoniae after 16 to 20 hrs by 2-fold microbroth dilution method

Citrobacter freundii = assay: microbe, parasite or virus in culture
Description: Antimicrobial activity against Citrobacter freundii after 16 to 20 hrs by 2-fold microbroth dilution method

Pseudomonas aeruginosa [1] = assay: microbe, parasite or virus in culture
Description: Antimicrobial activity against Pseudomonas aeruginosa after 16 to 20 hrs by 2-fold microbroth dilution method

[2] = AUC in rat at 10 mg/kg; type: ADME, organism-based; set-up: dose 10 mg/kg; conditions: plasma
Escherichia coli = assay: microbe, parasite or virus in culture
Description: Antimicrobial activity against Escherichia coli after 16 to 20 hrs by 2-fold microbroth dilution method

Acinetobacter sp. = assay: Antimicrobial activity against Acinetobacter sp. after 16 to 20 hrs by 2-fold microbroth dilution method; type: functional
[3] = Half life in rat at 10 mg/kg; type: ADME, organism-based; set-up: dose 10 mg/kg; conditions: in vivo
[4] = Thermodynamic solubility of the compound in thermosol at pH 3.0; type: physicochemical; conditions: buffer, read-out: Therm_solubility
Pseudomonas aeruginosa [5] = assay: Antimicrobial activity against wild type Pseudomonas aeruginosa PA01 after 16 to 20 hrs by 2-fold microbroth dilution method; type: functional
[6] = Thermodynamic solubility of the compound in thermosol at pH 9; type: physicochemical; conditions: buffer, read-out: Therm_solubility
Klebsiella aerogenes = assay: microbe, parasite or virus in culture
Description: Antimicrobial activity against Enterobacter aerogenes after 16 to 20 hrs by 2-fold microbroth dilution method

[7] = Thermodynamic solubility of the compound in thermosol at pH 7.4; type: physicochemical; conditions: buffer, read-out: Therm_solubility
Rattus norvegicus = assay: Free AUC in rat at 10 mg/kg; type: ADME, organism-based; set-up: dose 10 mg/kg; conditions: in vivo
[8] = Fraction unbound in human plasma relative to untreated control; type: ADME, cell-free
Pseudomonas aeruginosa [9] = assay: Antimicrobial activity against Pseudomonas aeruginosa PA3919 with (delta(mexAB-OprM)delta(mexXY)delta(MexZ) phenotype after 16 to 20 hrs by 2-fold microbroth dilution method; type: functional
[10] = Fraction unbound in rat plasma relative to untreated control; type: ADME, cell-free
[11] = Volume of distribution at steady state in rat at 10 mg/kg; type: ADME, organism-based; set-up: dose 10 mg/kg; conditions: in vivo, read-out: Vdss
[12] = Clearance in rat at 10 mg/kg; type: ADME, organism-based; set-up: dose 10 mg/kg; conditions: in vivo

| Structure (SMILES) | MIC90 (Klebsiella pneumoniae) | MIC90 (Citrobacter freundii) | MIC90 (Pseudomonas aeruginosa [1]) | AUC [2] | MIC90 (Escherichia coli) | MIC90 (Acinetobacter sp.) | half-life [3] | solubility thermodynamic [4] | MIC (Pseudomonas aeruginosa [5]) | solubility thermodynamic [6] | MIC90 (Klebsiella aerogenes) | solubility thermodynamic [7] | fAUC (Rattus norvegicus) | fraction unbound [8] | MIC (Pseudomonas aeruginosa [9]) | fraction unbound [10] | Vd [11] | clearance [12] |
| --- | --- | --- | --- | --- | --- | --- | --- | --- | --- | --- | --- | --- | --- | --- | --- | --- | --- | --- |
| C[C@@](CCc1ccc(-c2ccccc2)cc1)(C(=O)NO)S(C)(=O)=O | 16 µg/mL (≈ 46.1 µM) | 8 µg/mL (≈ 23 µM) | 4 µg/mL (≈ 11.5 µM) | 2900 ng·h/mL | 2 µg/mL (≈ 5.76 µM) | 32 µg/mL (≈ 92.1 µM) | 3.2 h | 7.3 µg/mL (≈ 21 µM) | 0.125 µg/mL (≈ 0.36 µM) | 260 µg/mL (≈ 748 µM) | 4 µg/mL (≈ 11.5 µM) | 3.9 µg/mL (≈ 11.2 µM) | 75 ng·h/mL | 0.023 | 0.008 µg/mL (≈ 0.023 µM) | 0.026 | 3.8 L/kg | 57 mL/min/kg |
| COc1ccc(-c2ccn(CC[C@](C)(C(=O)NO)S(C)(=O)=O)c(=O)c2)c(F)c1 | 0.5 µg/mL (≈ 1.21 µM) | 0.5 µg/mL (≈ 1.21 µM) | 1 µg/mL (≈ 2.42 µM) | 2300 ng·h/mL | 0.25 µg/mL (≈ 0.606 µM) | > 64 µg/mL | 1.4 h | 82 µg/mL (≈ 199 µM) | 0.125 µg/mL (≈ 0.303 µM) | > 14000 µg/mL | 0.5 µg/mL (≈ 1.21 µM) | 130 µg/mL (≈ 315 µM) | 740 ng·h/mL | 0.31 | 0.008 µg/mL (≈ 0.0194 µM) | 0.32 | 1.7 L/kg | 72 mL/min/kg |
| C[C@@](CCn1ccc(-c2ccc(-n3nccn3)cc2)cc1=O)(C(=O)NO)S(C)(=O)=O | 0.125 µg/mL (≈ 0.29 µM) | 0.125 µg/mL (≈ 0.29 µM) | 1 µg/mL (≈ 2.32 µM) | 5200 ng·h/mL | 0.06 µg/mL (≈ 0.139 µM) | 64 µg/mL (≈ 148 µM) | 0.94 h | 3.3 µg/mL (≈ 7.65 µM) | 0.25 µg/mL (≈ 0.579 µM) | 2740 µg/mL (≈ 6350 µM) | 0.125 µg/mL (≈ 0.29 µM) | 9.2 µg/mL (≈ 21.3 µM) | 680 ng·h/mL | 0.25 | 0.015 µg/mL (≈ 0.0348 µM) | 0.13 | 0.92 L/kg | 32 mL/min/kg |
| C[C@@](CCn1ccc(-c2ccccc2)cc1=O)(C(=O)NO)S(C)(=O)=O | 16 µg/mL (≈ 43.9 µM) | 8 µg/mL (≈ 22 µM) | 2 µg/mL (≈ 5.49 µM) |  | 8 µg/mL (≈ 22 µM) | 32 µg/mL (≈ 87.8 µM) |  | 410 µg/mL (≈ 1130 µM) | 0.5 µg/mL (≈ 1.37 µM) | > 16000 µg/mL | 16 µg/mL (≈ 43.9 µM) | 480 µg/mL (≈ 1320 µM) |  | 0.14 | 0.06 µg/mL (≈ 0.165 µM) | 0.28 |  |  |
